Legend:
zPTH1R [1] = assay: Total inositol phosphate accumulation, COS-7 cells expressing zPTH1R; format: cell-based, zebrafish; details: ligand 10^−6 M, 30 mM LiCl
Experimental: (§1) In order to determine total inositol phosphate turnover for COS-7 cells expressing zPTH1R, zPTH3R, and hPTH1R, cells were grown in 6-well plates with COS-7 cells (approximately 200,00 cells/well transfected with either 1 μg/well of zPTH1R, zPTH3R, or hPTH 1R (stina)). Cells were cultured for 3 days inDMEM/7% fetal bovine serum (FBS) at 37° C. with daily exchanges of medium. The cells were then preloaded with 3 μCi/ml myo-[^3H]inositol (New England Nuclear, Boston, Mass.) in inositol-free DMEM (Gibco)/7% FBS (33° C. for 18 hr). The following day, plates were rinsed and then incubated with 10^−6 M of either PTH, PTHrP in DMEM/0.1% BSA, or with DMEM/0.1% BSA alone (40 min at 37° C.), in the presence of 30 mM LiCl. Total inositol phosphate (IPs) were isolated by anion exchange column chromatography as previously described (Iida-Klein et al., (1994 and 1995)), and 1 ml of the eluate (⅛th of total) was counted in a liquid scintillation counter (model LS 60001C, Beckman, Fullerton, Calif.). All points represent mean±S.E.M. of two to three replicates from two or more independent experiments.

zPTH1R [2] = assay: Agonist-stimulated cAMP accumulation, COS-7 cells expressing zPTH1R; format: cell-based, zebrafish; details: for cAMP Maximum / EC50: intact COS-7 cells, room temperature
Experimental: (§2) Plasmid DNAs encoding the two full length ZPTH1Rs (#25 and #29) and the zPTH3R were transiently expressed in COS-7 cells. COS-7 African green monkey kidney cells (approximately 200,000 cells/well in a 24-well plate) were cultured and transfected with plasmid DNA (200 ng/well) as described (Rubin et al., (1998)). After transfection, cells were cultured for 72 hrs at 37° with daily exchanges of medium, followed by an additional 24 hrs at 33° (Gardella et al., (1997)) until they were functionally evaluated after 96 hrs.
(§3) In order to assess agonist-dependent cAMP accumulation of COS-7 cells expressing zPTH1R and zPTH3R, experiments were done in 24-well plates with COS-7 cells stimulated in the presence of increasing concentrations of either PTH or PTHrP, and intracellular cAMP was determined as described (Bergiwtz et al.,(1998)). EC50 values were determined as previously described (Gardella et al., (1996)).
(§4) Competitive binding and cAMP stimulation assays were performed at room temperature with intact COS-7 cells that expressed either the zPTH1R or the zPTH3R, as described in Materials and Methods. Homologous binding reactions utilized ^125I-rPTH with unlabeled rPTH, and ^125I-hPTHrP with unlabeled hPTHrP, heterologous binding reactions utilized ^125I-[…] with unlabeled rPTH. EC50 and IC50 values were determined as previously described (Gardella et al., 1996). Values are the mean±SEM of at least three independent transfections. ND, not determined.

zPTH3R [3] = assay: Agonist-stimulated cAMP accumulation, COS-7 cells expressing zPTH3R; format: cell-based, zebrafish
Sequence of zPTH3R (as listed by the source): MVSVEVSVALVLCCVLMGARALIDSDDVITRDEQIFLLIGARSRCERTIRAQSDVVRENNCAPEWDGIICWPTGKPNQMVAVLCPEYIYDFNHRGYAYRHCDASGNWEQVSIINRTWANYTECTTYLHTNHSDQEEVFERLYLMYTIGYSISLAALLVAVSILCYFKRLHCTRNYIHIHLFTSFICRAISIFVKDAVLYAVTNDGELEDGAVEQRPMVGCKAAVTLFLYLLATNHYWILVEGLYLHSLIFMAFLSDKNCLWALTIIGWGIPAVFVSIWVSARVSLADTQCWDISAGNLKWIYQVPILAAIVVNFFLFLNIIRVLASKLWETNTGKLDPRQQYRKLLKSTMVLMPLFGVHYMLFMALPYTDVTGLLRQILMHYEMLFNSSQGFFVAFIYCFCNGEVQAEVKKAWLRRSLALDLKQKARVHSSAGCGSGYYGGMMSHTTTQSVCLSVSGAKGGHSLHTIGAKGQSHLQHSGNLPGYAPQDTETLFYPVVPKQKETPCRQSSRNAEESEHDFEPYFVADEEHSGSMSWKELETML
Experimental: as §2, §3, §4

zPTH3R [4] = assay: Total inositol phosphate accumulation, COS-7 cells expressing zPTH3R; format: cell-based, zebrafish; details: ligand 10^−6 M, 30 mM LiCl
Experimental: as §1

zPTH3R [5] = assay: Competitive radioligand binding, COS-7 cells expressing zPTH3R; set-up: species or system zebrafish
Experimental: as §2
Radioligand studies with COS-7 cells expressing either zPTH1R or zPTH3R were performed as described using either ^125I-labeled [Nle^8,21,Tyr^34]rPTH-(1–34)amide (rPTH) (SEQ ID NO:22) or ^125I-labeled [Tyr^36]hPTHrP-(1–36)amide (PTHrP) (SEQ ID NO:23), and increasing concentrations of either [Tyr^34]hPTH(1–34)amide (PTH) (SEQ ID NO:24), or [Tyr36]hPTHrP(1–36)amide (PTHrP) (SEQ ID NO:25) (Bergwitz et al., (1997)). […] Specific binding was calculated by subtracting radioligand binding in the presence of excess unlabeled peptide from the total binding. […]
Competitive binding and cAMP stimulation assays were performed at room temperature with intact COS-7 cells that expressed either the zPTH1R or the zPTH3R, as described in Materials and Methods. […] EC50 and IC50 values were determined as previously described (Gardella et al., 1996). […] ND, not determined.

[6] = zPPR3, intact COS-7 cells, room temperature

Sequence of zPTH1R (as listed by the source): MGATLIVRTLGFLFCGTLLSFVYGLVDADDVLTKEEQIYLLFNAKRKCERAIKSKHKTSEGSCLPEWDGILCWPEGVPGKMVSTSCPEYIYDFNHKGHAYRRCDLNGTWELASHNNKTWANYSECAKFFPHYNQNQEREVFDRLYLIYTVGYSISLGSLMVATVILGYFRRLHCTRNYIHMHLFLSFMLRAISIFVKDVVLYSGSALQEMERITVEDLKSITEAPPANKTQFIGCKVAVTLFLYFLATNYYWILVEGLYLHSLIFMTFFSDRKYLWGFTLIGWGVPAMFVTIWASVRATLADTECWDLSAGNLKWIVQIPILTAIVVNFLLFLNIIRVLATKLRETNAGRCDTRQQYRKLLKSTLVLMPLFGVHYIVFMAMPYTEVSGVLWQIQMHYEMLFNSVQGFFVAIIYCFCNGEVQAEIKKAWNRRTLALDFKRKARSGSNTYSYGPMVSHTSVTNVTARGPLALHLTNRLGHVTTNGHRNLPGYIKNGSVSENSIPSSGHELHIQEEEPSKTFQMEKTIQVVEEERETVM

Substance | increase of IP accumulation (zPTH1R [1]) [fold] | cAMP Maximum (zPTH1R [2]; zPPR1#25) [pmol/well] | EC50 (zPTH1R [2]; zPPR1#29) [pM] | cAMP Maximum (zPTH1R [2]; zPPR1#29) [pmol/well] | maximal cAMP accumulation (zPTH1R [2]; zPTH1R#25, COS-7 cells) [pmole/well] | maximal cAMP accumulation (zPTH1R [2]; zPTH1R#29, COS-7 cells) [pmole/well] | EC50 (zPTH3R [3]; [6]) [pM] | maximal cAMP accumulation (zPTH3R [3]; [6]) [pmol/well] | maximal cAMP accumulation (zPTH3R [3]; zPTH3R, COS-7 cells) [pmol/well] | IP accumulation (zPTH3R [4]) | EC50 (zPTH1R [2]; zPPR1#25) [pM] | cAMP activation at low concentration (zPTH3R [3]; zPTH3R, COS-7 cells, 10^−11 M) | IC50 (zPTH3R [5]; [6]) [pM] | Kd (zPTH3R [5]; zPTH3R, COS-7 cells, read-out: apparent Kd) [pM]
AVAEIQLMHNLGKHLNSMERVEWLRKKLQDVHDY [hPTH, [Tyr^34]hPTH(1–34)amide] | 2 | 90.4 ± 11.4 | 800 ± 30 | 106.2 ± 4.8 | 90.4 | 106.2 | 5980 ± 240 | 227.4 ± 41.6 | 285 | no IP accumulation was detectable | – | – | – | –
[Tyr36]hPTHrP(1–36)amide | 2 | 92.4 ± 8.00 | 300 ± 40 | 101.6 ± 3.6 | 92.4 | 101.6 | 490 ± 170 | 285.4 ± 3.4 | 227 | no IP accumulation was detectable | 900 ± 90 | significant activation | ~3000 | ~3000
